US10238689B2, “Methods for combating bacterial infections by killing persister cells with mitomycin C and/or cisplatin” (THE PENN STATE RESEARCH FOUNDATION, priority 2015, dated 2019)
Entries after “also recorded” stand apart in the source; their conditions may differ.

Assays:
[1] = test system: E. coli K-12 BW25113 biofilm; assay: Biofilm dispersal assay (crystal violet); type: cell-based, Escherichia coli; settings: 24 h static growth then 24 h with MMC, 30° C., M9-glucose
Procedure: Cultures were incubated for an additional 24 h with or without MMC. Biofilm levels were assayed using crystal violet staining as described previously (Lee, et al., Appl. Environ. Microbiol. 75, 1703 (2009)). Cell growth (turbidity at 620 nm) was used to normalize the total biofilm formation (absorbance at 540 nm). Data points were averaged from 15 replicate wells using at least two independent cultures.

[2] = test system: gDNA (rrsG and murB) of E. coli K-12 BW25113/pCA24N; assay: qPCR of gDNA crosslinking in cells (in vivo); type: cell-based, Escherichia coli; settings: MMC 100 μg/mL 1 h
Procedure: Overnight cultures (16 h) of E. coli K-12 BW25113/pCA24N grown in LB were diluted 1:1000 in buffered LB and grown to the desired turbidity. For exponential phase cells (i.e., non-persisters), cultures were grown to a turbidity of 2.0 at 600 nm. For rifampicin-induced persisters, cultures were grown to a turbidity of 0.8 at 600 nm, exposed to rifampicin (100 μg/mL) for 30 min, centrifuged, and resuspended in fresh medium to remove the rifampicin. Non-persister and rifampicin-induced persister cultures were treated with MMC (100 μg/mL) for 1 h. gDNA was extracted, using an UltraClean Microbial DNA Isolation Kit (MO BIO Laboratories, Carlsbad, Calif., USA), from samples taken before and after MMC treatment and 100 ng of DNA was used for qPCR of rrsG and murB using the GoTaq qPCR Master Mix (Promega, Madison, Wis., USA) and the StepOne Real-Time PCR System (Applied Biosystems, Foster City, Calif., USA) (primers are shown in Table 2). As a positive control, 3 μg of gDNA from BW25113 non-persisters was crosslinked in vitro with 500 μg/mL (1.5 mM) MMC in 0.2 mM EDTA, 50 mM NaCl, and 5 mM Tris (pH=7.6) with Na2S2O4 added six times at 10 min intervals to reach a final concentration of 2.25 mM (1.5× molarity of MMC). The in vitro crosslinking reaction was performed anaerobically on ice and the reaction was stopped by exposure to air.

[3] = test system: pDNA of E. coli K-12 BW25113/pCA24N; assay: Denaturing agarose gel electrophoresis of pDNA from treated cells; type: cell-based, Escherichia coli; settings: non-persisters and rifampicin-induced persisters, MMC 100 μg/mL 1 h
Procedure: Overnight cultures (16 h) of E. coli K-12 BW25113/pCA24N grown in LB were diluted 1:1000 in buffered LB and grown to the desired turbidity. For exponential phase cells (i.e., non-persisters), cultures were grown to a turbidity of 2.0 at 600 nm. For rifampicin-induced persisters, cultures were grown to a turbidity of 0.8 at 600 nm, exposed to rifampicin (100 μg/mL) for 30 min, centrifuged, and resuspended in fresh medium to remove the rifampicin. Non-persister and rifampicin-induced persister cultures were treated with MMC (100 μg/mL) for 1 h. pDNA was extracted from samples taken before and after MMC treatment and linearized by HindIII digestion. As a positive control, 2 μg of linearized pDNA from non-persisters was crosslinked in vitro with 500 μg/mL (1.5 mM) MMC in 0.2 mM EDTA, 50 mM NaCl, and 5 mM Tris (pH=7.6) with Na2S2O4 added six times at 10 min intervals to reach a final concentration of 2.25 mM (1.5× molarity of MMC). The in vitro crosslinking reaction was performed anaerobically on ice and the reaction was stopped by exposure to air. Linearized pDNA was visualized after electrophoresis through a TAE agarose gel and an alkaline denaturing agarose gel. Experiment was performed with at least two independent cultures.

EHEC infection = type: in vivo, Caenorhabditis elegans; settings: MMC 10 μg/mL, ciprofloxacin 5 μg/mL, ampicillin 100 μg/mL, 6 h exposure; four replicates
EHEC biofilm cultures = settings: M9-glucose, 24 h treatment, MMC 10 μg/mL, ciprofloxacin 5 μg/mL
E. coli K-12 = assay: Minimum inhibitory concentration (MIC) assay; type: cell-based, Escherichia coli; settings: 16 h, lack of turbidity
Procedure: Minimum inhibitory concentration (MIC) assay. To determine the MICs of cisplatin for E. coli K-12, enterohemorrhagic E. coli (EHEC), S. aureus, and P. aeruginosa (PAO1 and PA14), freshly inoculated cultures (at least two independent cultures) in buffered LB (TSB for S. aureus) were incubated for 16 h with varying concentrations of cisplatin, and growth inhibition was assayed by the lack of turbidity.

E. coli K-12 cells = assay: Test of DNA crosslinking compounds for antimicrobial activity; type: cell-based, Escherichia coli; settings: 100 μg/mL
Procedure: Stocks of cisplatin (2 mg/mL, Sigma-Aldrich, St. Louis, Mo., USA) were prepared in 0.1M NaClO4 and MMC (0.5 mg/mL, Fisher Scientific, Pittsburgh, Pa., USA) was prepared in water. Stocks of busulfan (2 mg/mL, Cayman Chemical, Ann Arbor, Mich., USA), melphalan (2 mg/mL, Cayman Chemical), dynemicin A (5 mg/mL, AdooQ, Irvine, Calif., USA), and tirapazamine (0.5 mg/mL, Sigma-Aldrich) were prepared in dimethylsulfoxide, the stock of cyclophosphamide (0.5 mg/mL, Cayman Chemical) was prepared in water, and the stock of carmustine (214 mg/mL, Enzo Life Sciences, Farmingdale, N.Y., USA) was prepared in ethanol.
In this Example we tested seven other DNA crosslinking compounds: busulfan (100 μg/mL), carmustine (100 μg/mL) cisplatin (100 μg/mL), cyclophosphamide (100 μg/mL), dynemicin A (200 μg/mL), melphalan (100 μg/mL), and tirapazamine (10 μg/mL).

S. aureus ATCC29213 = assay: Persister cell assay of pathogens (stationary phase); type: cell-based, Staphylococcus aureus; settings: stationary phase cells, TSB; cisplatin 500 μg/mL, 1.7×MIC, 3 h
Procedure: For the persister cell assay of the pathogens, stationary-phase cells were used. Cultures of EHEC, P. aeruginosa, and S. aureus were prepared by a 1:1000 dilution of overnight grown cultures (LB medium for EHEC and P. aeruginosa, TSB for S. aureus) into fresh buffered LB medium for EHEC, M9-glucose for P. aeruginosa, and TSB for S. aureus and re-growing the cells to a turbidity of 3 to 4 at 600 nm for EHEC and S. aureus and growing for 24 h for P. aeruginosa. Stationary-phase cultures of EHEC (buffered LB medium), P. aeruginosa (M9-glucose medium), and S. aureus (TSB medium) were then treated with cisplatin (500 μg/mL for EHEC and S. aureus, 250 μg/mL for P. aeruginosa) for 3 h (250 mL flask, 250 rpm).

SMILES | biofilm dispersal [1] | Fold Change in amplifiable DNA ([2]; Non-persisters, murB) [fold] | Fold Change in amplifiable DNA ([2]; Non-persisters, rrsG) [fold] | Fold Change in amplifiable DNA ([2]; Persisters, murB) [fold] | Fold Change in amplifiable DNA ([2]; Persisters, rrsG) [fold] | pDNA crosslinking (migration as double-stranded DNA under denaturing conditions) [3] | survival of the EHEC-infected worms (EHEC infection) | cells surviving (EHEC biofilm cultures) | MIC (E. coli K-12) [µg/mL] | antimicrobial activity (E. coli K-12 cells) | survival (S. aureus ATCC29213) [%]
CO[C@@]12[C@H](COC(N)=O)C3=C(C(=O)C(C)=C(N)C3=O)N1C[C@@H]1N[C@@H]12 [MMC, mitomycin C] | does not cause biofilm dispersal; also recorded: did not cause biofilm dispersal | −5.13±0.14 | −5.95±0.20 | −5.99±0.50 | −5.01±0.51 | crosslinks DNA in E. coli K-12 persister cells; also recorded: high percentage of crosslinking | higher than with either ciprofloxacin or ampicillin | eradicated |  |  | 
N.N.[Cl][Pt][Cl] [cisplatin, cis-diamminodichloroplatinum(II)] |  |  |  |  |  |  |  |  | 100 | exhibited antimicrobial activity | 0.0001±0.0001
